Measured values: patent publication EP1016409B1, “FREEZE DRIED COMPOSITION COMPRISING GLYCOSPHINGOLIPIDS” (KIRIN BEER KABUSHIKI KAISHA, priority 1997, dated 1998)

Tests used:
Assay type in all cases: physicochemical
[1] = Optimal formulation: re-solubility after storage; details: lyophilized, KRN7000 200 µg/ml, Polysorbate 20 0.5%
Procedure: First, Polysorbate 20 was dissolved in distilled water in a concentration of 0.5%, and sucrose and histidine or sodium deoxycholate in such concentrations listed on Table 11. Next, 20 mg of the active component (KRN7000) was weighed and stirred in 100 ml of the solvents in a heated bath to 80°C for 20 minutes in order to form a solution. After cooling with running water, the mixture was filtered through a 0.22 µm filter, and transparent colorless glass vials having a volume of 5 ml were charged with a 1 ml portion of each of a variety of solutions thus obtained and subjected to lyophilization. Lyophilization was carried out under the condition of preliminary freezing at -40°C for 2 hours and drying at -20°C for 24 hours, 10°C for 12 hours, and finally at 25°C for 5 hours to give the lyophilized product. The degree of vacuum was set at 0.1 Torr or less during drying step.
After the lyophilization step, the lyophilized composition thus obtained was stored at 25°C or 50°C. After storage at 25°C for 2 months or at 50°C for 2 weeks, the lyophilized composition was reconstituted in 1 ml of distilled water for injection, left standing for 30 minutes, and solubility was judged when the foams generated on reconstitution disappeared. The samples judged to be solution after storage at 25°C for 2 months were further stored, and judged again of their solubility after storage for 4 months.
The solubility was judged by cleaning the outside of the vial and placing it beneath the white light source in a darkroom for observation with naked eye at the position of a luminous intensity of about 5,000 lux. When the sample was clear with no precipitates, it was judged that the active component was dissolved.

[2] = Cooling condition after dissolution with heating 2: turbidity after storage; details: lyophilized composition (Polysorbate 20 0.5%, histidine 0.75%, sucrose 5.6%) stored at 50°C for 1 week, reconstituted
Procedure: First, Polysorbate 20 was dissolved in distilled water in a concentration of 0.5%, histidine in a concentration of 0.75%, and sucrose in a concentration of 5.6%. Next, 800 mg of the active component (KRN7000) was weighed and stirred in 4 liters of the solvent under heating at 73°C for 30 minutes in order to form a solution. After dissolution, the mixture was divided into about 500 ml portions, cooled rapidly - gradually with stirring under the following six rates:
After cooling, the mixtures were filtered through a 0.22 µm filter, and transparent colorless glass vials having a volume of 5 ml were charged with a 1 ml portion of each of a variety of solutions thus obtained and subjected to lyophilization. Lyophilization was carried out under the condition of preliminary freezing at -50°C for 5 hours and drying at -15°C for 48 hours, 10°C for 12 hours, and finally at 25°C for 7 hours to give the lyophilized product. The degree of vacuum was set at 0.1 Torr or less during drying step.
After lyophilization, the lyophilized composition thus obtained was stored at 50°C for 1 week, and the turbidity of the reconstituted solution was measured. In this connection, the turbidity of the lyophilized composition was used which was reconstituted in 1 ml of distilled water for injection and left standing for 30 minutes, and turbidity was measured when the foams generated on reconstitution disappeared.
(§1) The turbidity was measured by the following method: various dilutions including 50-fold dilution (kaolin 2 µg/ml, turbidity 2.00), 100-fold dilution (kaolin 1 µg/ml, turbidity 1.00), and 200-fold dilution (kaolin 0.5 µg/ml, turbidity 0.50) were prepared by diluting the turbidity standard (kaolin, […]) with distilled water. A calibration curve was made by measuring the absorbance at a wave length of 660 nm with a control of distilled water and the various dilutions in a spectrophotometer (HITACHI U-3210). Next, the absorbance of the solutions was measured under the same condition as above to calculate the turbidity of the solutions.

[3] = Cooling condition after dissolution with heating 1: turbidity; details: Polysorbate 20 0.5%, histidine 0.75%, sucrose 5.6%, cooling 73°C → 30°C; for Turbidity After filtration / Turbidity Before filtration: 800 mg KRN7000 in 4 liters; for Turbidity After filtration: 0.22 µm filter; for Turbidity After filtration / Turbidity Lyophilized composition: kaolin 1 µg/ml = turbidity 1.00; for Turbidity Before filtration: kaolin 1 µg/ml = turbidity 1.00, 660 nm; for Turbidity Lyophilized composition: reconstituted after 3 hours at room temperature (25°C)
Procedure: First, Polysorbate 20 was dissolved in distilled water in a concentration of 0.5%, histidine in a concentration of 0.75%, and sucrose in a concentration of 5.6%. Next, 800 mg of the active component (KRN7000) was weighed and stirred in 4 liters of the solvent under heating at 73°C for 30 minutes in order to form a solution. After dissolution, the mixture was divided into about 500 ml portions, cooled with stirring from 73°C to 30°C (6 minutes), from 73°C to 30°C (23 minutes), and from 73°C to 30°C (120 minutes). After cooling, the mixtures were filtered through a 0.22 µm filter, and transparent colorless glass vials having a volume of 5 ml were charged with a 1 ml portion of each of a variety of solutions thus obtained and subjected to lyophilization. Lyophilization was carried out under the condition of preliminary freezing at -50°C for 5 hours and drying at -15°C for 48 hours, 10°C for 12 hours, and finally at 25°C for 7 hours to give the lyophilized product. The degree of vacuum was set at 0.1 Torr or less during drying step.
The turbidity of the solutions prepared respective cooling conditions before or after the filtration step, and the lyophilized composition thus obtained which were reconstituted after leaving standing at room temperature (25°C) for 3 hours from the lyophilization step, were measured. In this connection, the lyophilized composition was reconstituted in 1 ml of distilled water for injection, left standing for 30 minutes, and turbidity was measured when the foams generated on reconstitution disappeared.
as §1

Re-solubility after storage (by naked eye) ([1]; Sucrose 1.1%, Histidine, 4%, 50°C, 2 weeks): + (+ not dissolved (or deposited))
Re-solubility after storage (by naked eye) ([1]; Sucrose 3.1%, Histidine, 3%, 50°C, 2 weeks): - (- dissolved)
Re-solubility after storage (by naked eye) ([1]; Sucrose 3.2%, Histidine, 2%, 50°C, 2 weeks): - (- dissolved)
Re-solubility after storage (by naked eye) ([1]; Sucrose 4.8%, Sodium deoxycholate, 0.2%, 25°C, 2 months): + (+ not dissolved (or deposited))
Re-solubility after storage (by naked eye) ([1]; Sucrose 4.8%, Sodium deoxycholate, 0.5%, 25°C, 2 months): - (- dissolved)
Re-solubility after storage (by naked eye) ([1]; Sucrose 4.8%, Sodium deoxycholate, 0.5%, 25°C, 4 months): - (- dissolved)
Re-solubility after storage (by naked eye) ([1]; Sucrose 4.8%, Sodium deoxycholate, 1%, 25°C, 2 months): - (- dissolved)
Re-solubility after storage (by naked eye) ([1]; Sucrose 4.8%, Sodium deoxycholate, 1%, 25°C, 4 months): - (- dissolved)
Re-solubility after storage (by naked eye) ([1]; Sucrose 4.8%, Sodium deoxycholate, 2%, 25°C, 2 months): - (- dissolved)
Re-solubility after storage (by naked eye) ([1]; Sucrose 4.8%, Sodium deoxycholate, 2%, 25°C, 4 months): - (- dissolved)
Re-solubility after storage (by naked eye) ([1]; Sucrose 5.0%, Histidine, 2%, 50°C, 2 weeks): - (- dissolved)
Re-solubility after storage (by naked eye) ([1]; Sucrose 5.1%, Histidine, 1%, 50°C, 2 weeks): - (- dissolved)
Re-solubility after storage (by naked eye) ([1]; Sucrose 6.9%, Histidine, 1%, 50°C, 2 weeks): - (- dissolved)
Re-solubility after storage (by naked eye) ([1]; Sucrose 7.9%, Histidine, 0.5%, 50°C, 2 weeks): + (+ not dissolved (or deposited))
Re-solubility after storage (by naked eye) ([1]; Sucrose 9.6%, Histidine, 2%, 50°C, 2 weeks): - (- dissolved)
Re-solubility after storage (by naked eye) ([1]; Sucrose 9.6%, Sodium deoxycholate, 0.2%, 25°C, 2 months): + (+ not dissolved (or deposited))
Re-solubility after storage (by naked eye) ([1]; Sucrose 9.6%, Sodium deoxycholate, 0.5%, 25°C, 2 months): - (- dissolved)
Re-solubility after storage (by naked eye) ([1]; Sucrose 9.6%, Sodium deoxycholate, 0.5%, 25°C, 4 months): - (- dissolved)
Re-solubility after storage (by naked eye) ([1]; Sucrose 9.6%, Sodium deoxycholate, 1%, 25°C, 2 months): - (- dissolved)
Re-solubility after storage (by naked eye) ([1]; Sucrose 9.6%, Sodium deoxycholate, 1%, 25°C, 4 months): - (- dissolved)
Re-solubility after storage (by naked eye) ([1]; Sucrose 9.6%, Sodium deoxycholate, 2%, 25°C, 2 months): - (- dissolved)
Re-solubility after storage (by naked eye) ([1]; Sucrose 9.6%, Sodium deoxycholate, 2%, 25°C, 4 months): - (- dissolved)
Re-solubility after storage (by naked eye) ([1]; Sucrose 19.2%, Sodium deoxycholate, 0.1%, 25°C, 2 months): + (+ not dissolved (or deposited))
Re-solubility after storage (by naked eye) ([1]; Sucrose 19.2%, Sodium deoxycholate, 0.2%, 25°C, 2 months): + (+ not dissolved (or deposited))
Re-solubility after storage (by naked eye) ([1]; Sucrose 19.2%, Sodium deoxycholate, 0.5%, 25°C, 2 months): + (+ not dissolved (or deposited))
Re-solubility after storage (by naked eye) ([1]; Sucrose 19.2%, Sodium deoxycholate, 1%, 25°C, 2 months): + (+ not dissolved (or deposited))
Re-solubility after storage (by naked eye) ([1]; Sucrose 19.2%, Sodium deoxycholate, 2%, 25°C, 2 months): + (+ not dissolved (or deposited))
Turbidity ([2]; cooling ① 73°C → 30°C, 4 minutes (10.75°C/min)): 2.08
Turbidity ([2]; cooling ② 73°C → 30°C, 6 minutes (7.17°C/min)): 2.67
Turbidity ([2]; cooling ③ 73°C → 30°C, 7 minutes (6.14°C/min)): 3.31
Turbidity ([2]; cooling ④ 73°C → 30°C, 10 minutes (4.30°C/min)): 3.80
Turbidity ([2]; cooling ⑤ 73°C → 30°C, 23 minutes (1.87°C/min)): 6.44
Turbidity ([2]; cooling ⑥ 73°C → 30°C, 120 minutes (0.36°C/min)): 18.84
Turbidity After filtration ([3]; 6 minutes): 0.13
Turbidity Before filtration ([3]; 6 minutes): 0.23
Turbidity After filtration ([3]; 23 minutes): 0.15
Turbidity Before filtration ([3]; 23 minutes): 0.58
Turbidity After filtration ([3]; 120 minutes): 0.16
Turbidity Before filtration ([3]; 120 minutes): 0.64
Turbidity Lyophilized composition ([3]; 6 minutes): 0.24
Turbidity Lyophilized composition ([3]; 23 minutes): 0.36
Turbidity Lyophilized composition ([3]; 120 minutes): 0.36
SMILES: CCCCCCCCCCCCCCCCCCCCCCCCCC(=O)N[C@@H](CO[C@H]1O[C@H](CO)[C@H](O)[C@H](O)[C@H]1O)[C@H](O)[C@H](O)CCCCCCCCCCCCCC [KRN7000, (2S,3S,4R)-1-(α-D-galactopyranosyloxy)-2-hexacosanoylamino-3,4-octadecanediol]
